Experimental data published in article PMC8500670, “A selective WDR5 degrader inhibits acute myeloid leukemia in patient-derived mouse models” (Science translational medicine, 2021).
Read-outs that look alike come from different tables or passages of the source.

Tests used:
Experiment in all cases: biochemical
Design in all cases: protein methyltransferase selectivity panel, enzyme activity relative to DMSO controls, single concentration in duplicate
G9a = biological target: T1, G9a (Homo sapiens, UniProt Q96KQ7); details: Substrate:=Histone H3 1-21
T1 construct: gene EHMT2
T1 sequence (Q96KQ7 1-1210): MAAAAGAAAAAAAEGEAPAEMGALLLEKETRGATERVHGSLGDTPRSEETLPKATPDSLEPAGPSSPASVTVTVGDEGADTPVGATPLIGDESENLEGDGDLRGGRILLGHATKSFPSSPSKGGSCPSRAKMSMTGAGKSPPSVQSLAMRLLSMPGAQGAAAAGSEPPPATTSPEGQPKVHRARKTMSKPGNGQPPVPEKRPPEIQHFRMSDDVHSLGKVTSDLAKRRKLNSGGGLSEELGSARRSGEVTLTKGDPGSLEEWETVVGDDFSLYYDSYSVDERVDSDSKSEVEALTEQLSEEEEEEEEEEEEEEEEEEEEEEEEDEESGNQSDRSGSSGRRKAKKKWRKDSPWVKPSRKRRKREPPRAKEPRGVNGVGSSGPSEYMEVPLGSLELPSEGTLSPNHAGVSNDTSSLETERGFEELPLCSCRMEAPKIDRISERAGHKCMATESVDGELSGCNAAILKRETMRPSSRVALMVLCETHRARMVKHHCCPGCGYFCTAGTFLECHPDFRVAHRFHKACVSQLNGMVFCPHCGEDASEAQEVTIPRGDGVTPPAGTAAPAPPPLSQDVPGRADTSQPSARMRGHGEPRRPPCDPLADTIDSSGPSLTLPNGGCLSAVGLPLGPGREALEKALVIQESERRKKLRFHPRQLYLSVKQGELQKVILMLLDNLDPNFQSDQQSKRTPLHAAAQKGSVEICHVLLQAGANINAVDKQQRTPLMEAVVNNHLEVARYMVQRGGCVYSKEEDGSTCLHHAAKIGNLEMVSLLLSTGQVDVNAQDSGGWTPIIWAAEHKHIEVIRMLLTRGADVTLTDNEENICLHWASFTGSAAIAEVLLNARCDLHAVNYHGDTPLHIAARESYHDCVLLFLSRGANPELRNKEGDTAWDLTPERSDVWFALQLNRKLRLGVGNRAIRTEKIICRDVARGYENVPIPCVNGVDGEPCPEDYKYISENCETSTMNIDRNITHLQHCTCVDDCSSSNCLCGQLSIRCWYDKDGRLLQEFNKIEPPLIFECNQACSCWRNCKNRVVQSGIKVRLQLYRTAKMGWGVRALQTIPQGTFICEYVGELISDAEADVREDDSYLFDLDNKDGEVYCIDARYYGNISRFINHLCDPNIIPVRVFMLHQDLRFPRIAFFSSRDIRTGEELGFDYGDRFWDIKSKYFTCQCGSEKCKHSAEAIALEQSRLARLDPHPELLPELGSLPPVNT
Description: (§1) We next assessed selectivity of MS67 against 22 protein methyltransferases (table S2) and a broad panel of common drug targets including 45 kinases (table S3) and 44 G protein–coupled receptors (GPCR), ion channels, and transporters (table S4). […] We subsequently determined that MS67 had moderate binding affinity (Ki = 1.0 ± 0.8 μM) to Sigma 2 receptor (fig. S10).

PRMT1 = PRMT1 (Homo sapiens, UniProt Q99873); details: Substrate:=Histone H4
PRMT1, sequence (Q99873 whole entry): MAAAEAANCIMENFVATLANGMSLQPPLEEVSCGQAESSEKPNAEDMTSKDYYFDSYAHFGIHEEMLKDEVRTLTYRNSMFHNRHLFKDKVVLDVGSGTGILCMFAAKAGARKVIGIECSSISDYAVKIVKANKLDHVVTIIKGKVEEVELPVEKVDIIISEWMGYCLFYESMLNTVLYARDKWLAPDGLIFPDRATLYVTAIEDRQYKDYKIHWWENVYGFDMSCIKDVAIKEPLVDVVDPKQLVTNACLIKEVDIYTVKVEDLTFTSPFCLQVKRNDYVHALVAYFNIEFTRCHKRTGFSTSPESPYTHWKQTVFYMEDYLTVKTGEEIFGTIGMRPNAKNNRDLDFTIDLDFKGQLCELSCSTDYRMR
Description: as §1

PRMT3 = PRMT3 (Homo sapiens, UniProt O60678); details: Substrate:=Histone H4
PRMT3, sequence (O60678 whole entry): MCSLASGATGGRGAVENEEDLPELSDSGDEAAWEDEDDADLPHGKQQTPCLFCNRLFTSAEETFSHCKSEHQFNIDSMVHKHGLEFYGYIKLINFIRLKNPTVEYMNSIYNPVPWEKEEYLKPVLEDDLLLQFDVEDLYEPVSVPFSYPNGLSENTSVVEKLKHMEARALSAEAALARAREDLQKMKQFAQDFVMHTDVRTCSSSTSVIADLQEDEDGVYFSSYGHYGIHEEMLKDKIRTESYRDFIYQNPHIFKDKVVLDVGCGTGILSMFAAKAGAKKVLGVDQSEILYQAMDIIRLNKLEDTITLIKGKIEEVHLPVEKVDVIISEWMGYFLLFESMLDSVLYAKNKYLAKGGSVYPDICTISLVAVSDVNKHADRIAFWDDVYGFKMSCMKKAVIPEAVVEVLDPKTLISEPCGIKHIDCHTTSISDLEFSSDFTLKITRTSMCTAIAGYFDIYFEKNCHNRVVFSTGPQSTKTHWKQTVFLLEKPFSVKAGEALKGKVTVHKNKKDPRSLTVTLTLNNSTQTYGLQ
Description: as §1

SUV39H1 = biological target: T2, SUV39H1 (Homo sapiens, UniProt O43463); details: Substrate:=Histone H3
T2 sequence (O43463 1-412): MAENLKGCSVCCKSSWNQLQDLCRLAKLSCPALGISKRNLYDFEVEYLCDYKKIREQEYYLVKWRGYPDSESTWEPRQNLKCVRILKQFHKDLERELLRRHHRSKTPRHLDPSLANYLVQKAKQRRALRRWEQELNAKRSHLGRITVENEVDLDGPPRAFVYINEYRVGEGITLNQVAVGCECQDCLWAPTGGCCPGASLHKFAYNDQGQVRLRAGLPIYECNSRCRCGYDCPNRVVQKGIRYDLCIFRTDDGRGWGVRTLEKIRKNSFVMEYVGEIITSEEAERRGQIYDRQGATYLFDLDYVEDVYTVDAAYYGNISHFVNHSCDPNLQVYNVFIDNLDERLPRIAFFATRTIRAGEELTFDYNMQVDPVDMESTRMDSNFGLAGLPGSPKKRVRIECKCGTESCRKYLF
Description: as §1

[1] = read-out: Enzyme % Activity (relative to DMSO controls) / MS67 / 10 / Data 1:
[2] = read-out: Enzyme % Activity (relative to DMSO controls) / MS67 / 10 / Data 2:

Cc1ncsc1-c1ccc([C@H](C)NC(=O)[C@@H]2C[C@@H](O)CN2C(=O)[C@@H](NC(=O)CNC(=O)c2ccc(F)c(-c3ccc(N4C[C@@H](C)N(C)[C@@H](C)C4)c(NC(=O)c4c[nH]c(=O)cc4C(F)(F)F)c3)c2)C(C)(C)C)cc1 [MS67]
remaining activity at 10 µM (G9a; [1]): 93% | remaining activity at 10 µM (G9a; [2]): 90.9% | remaining activity at 10 µM (PRMT1; [1]): 98.9% | remaining activity at 10 µM (PRMT1; [2]): 96% | remaining activity at 10 µM (PRMT3; [1]): 92% | remaining activity at 10 µM (PRMT3; [2]): 102% | remaining activity at 10 µM (SUV39H1; [1]): 96% | remaining activity at 10 µM (SUV39H1; [2]): 105%
